# Experimental data reported in PubChem BioAssay (NCI).
# Values joined by “and” are separate entries in the source; they are usually repeats but may differ in a detail not shown here. Identical values can stand only once.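 Results reflect a 48-hour exposure of cells in 96-well plates to compound at five concentrations. GI50 = concentration required for 50% inhibition of growth. TGI marks complete inhibition of growth.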
# Experiments:
# Assay in all cases: NCI anticancer screen, dose series, 48 h
# [1] = test system: CAKI-1 renal
# [2] = test system: MALME-3M melanoma
# [3] = test system: MOLT-4 leukemia
# [4] = test system: UACC-62 melanoma
# [5] = test system: NCI-H23 lung
# [6] = test system: PC-3 prostate
# [7] = test system: OVCAR-5 ovarian
# [8] = test system: DU-145 prostate
# [9] = test system: UACC-257 melanoma
# [10] = test system: OVCAR-8 ovarian
SMILES,TGI [1],TGI [2],TGI [3],TGI [4],GI50 [5],TGI [5],TGI [6],TGI [7],TGI [8],TGI [9],TGI [10],GI50 [1],GI50 [2],GI50 [3],GI50 [4],GI50 [6],GI50 [7],GI50 [8],GI50 [9],GI50 [10]
CC1(C)CC(O)CC(C)(C)N1O,> 100 µM,> 100 µM,> 100 µM,> 100 µM,> 100 µM,> 100 µM,> 100 µM,> 100 µM,> 100 µM,> 100 µM,> 100 µM,–,–,–,–,–,–,–,–,–
Nc1ccc(CC[C@H]2CCC/C=C/[C@@H]3C[C@H](O)C[C@H]3[C@H](O)/C=C/C(=O)O2)cc1,1.47 µM,0.543 µM,0.0847 µM,14.1 µM,0.0379 µM,1.06 µM,> 100 µM,> 78.1 µM,> 100 µM,37.1 µM,> 100 µM,0.0349 µM,0.0731 µM,0.029 µM,0.0488 µM,0.0494 µM,0.0481 µM,0.107 µM,0.0565 µM,0.0407 µM
[O]=[Sn]([CH]1CCCCC1)[CH]1CCCCC1,0.341 µM,0.555 µM,–,0.743 µM,0.198 µM,0.591 µM,1.94 µM,1.71 µM,0.839 µM,0.384 µM,1.17 µM,0.145 µM,0.173 µM,0.273 µM,0.208 µM,0.517 µM,0.62 µM,0.259 µM,0.133 µM,0.298 µM
COc1ccc2nc3ccccc3c(NCCNCCO)c2c1,6.5 µM,1.88 µM,3.77 µM,2.99 µM,0.762 µM,3.53 µM,3.79 µM,8.85 µM,5.8 µM,2.34 µM,8.88 µM,1.22 µM,0.382 µM,0.393 µM,1.09 µM,0.554 µM,1.18 µM,0.588 µM,0.655 µM,0.528 µM
O=c1cc(-c2ccccc2)oc2ccc(Cl)cc12,> 90.4 µM,> 82.4 µM,98.7 µM,> 79.4 µM,–,> 100 µM,> 80.3 µM,> 100 µM,> 100 µM,> 74.6 µM,> 100 µM,–,–,–,–,–,–,–,–,–
C=C1C(=O)OC2CC(C)C(/C=C/C(C)=O)=CCC12 (configuration not stated),> 100 µM,89.4 µM,> 100 µM,> 100 µM,–,> 100 µM,> 100 µM,> 100 µM,> 100 µM,> 100 µM,> 100 µM,–,–,–,–,–,–,–,–,–
NNc1c(C(N)=O)c2c(N)ncnc2n1C1OC(CO)C(O)C1O (configuration not stated),0.826 µM and 0.909 µM,0.084 µM and 0.171 µM,0.103 µM and 0.495 µM,0.124 µM and 0.168 µM,0.0268 µM and 0.0507 µM,0.266 µM and 0.319 µM,0.22 µM and 0.304 µM,1.1 µM and 7.56 µM,0.183 µM and 0.178 µM,0.254 µM and 1.37 µM,11.5 µM and 3.51 µM,0.0171 µM and < 0.0167 µM,0.0205 µM and 0.0363 µM,0.0232 µM and 0.0964 µM,0.0269 µM and 0.0409 µM,0.0224 µM and 0.0464 µM,0.0578 µM and 0.309 µM,< 0.0151 µM,0.0404 µM and 0.132 µM,0.0178 µM and 0.0343 µM
Cc1cc(NC(=O)NCc2ccc(N3C(N)=NC(N)=NC3(C)C)cc2)ccc1S(=O)(=O)F,> 100 µM,98.5 µM,> 100 µM,> 100 µM,4.29 µM,> 100 µM,31 µM,> 100 µM,> 100 µM,> 100 µM,> 100 µM,> 49.3 µM,29 µM,2.01 µM,0.998 µM,0.0962 µM,> 25.4 µM,1.35 µM,33.6 µM,6.76 µM
CC(C)(C)N/N=C(/Cc1nc2c3c(ccc2[nH]c1=O)C(=O)c1ccccc1C3=O)C(=O)NC1=C(Cl)C(=O)c2ccccc2C1=O,> 100 µM,37.8 µM,> 100 µM,> 100 µM,–,> 100 µM,> 100 µM,> 100 µM,> 100 µM,> 100 µM,98.6 µM,–,–,–,–,–,–,–,–,–
Cc1ccc(-c2nc(NCCOCCOCCN)nc(N3CCN(c4ccccn4)CC3)n2)cc1,33.7 µM,33.7 µM,36 µM,13.7 µM,16.4 µM,32 µM,31 µM,32.9 µM,31.1 µM,15.5 µM,37.5 µM,16.5 µM,15.2 µM,15.8 µM,5.99 µM,15.5 µM,16.9 µM,16.6 µM,6.85 µM,17.8 µM
CCc1ccc2c(c1)C(=O)c1c-2n(CCCN)c(=O)c2cc(OC)c(OC)cc12,–,2.1 µM,3.52 µM,3.32 µM,1.81 µM,3.3 µM,2.92 µM,3.24 µM,3.07 µM,43.6 µM,–,–,0.5 µM,1.75 µM,1.8 µM,1.54 µM,1.82 µM,1.62 µM,19.5 µM,–
CCn1c(-c2nonc2N)nc2ccccc21,> 25 µM,> 25 µM,> 25 µM,> 25 µM,> 25 µM,> 25 µM,> 25 µM,> 25 µM,> 25 µM,> 25 µM,> 25 µM,> 25 µM,> 25 µM,> 25 µM,> 25 µM,> 25 µM,> 25 µM,> 25 µM,> 25 µM,> 25 µM
Clc1ccc2c(NCCNc3nc(N4CCOCC4)nc4ccccc34)ccnc2c1,–,3.89 µM,14.1 µM,3.75 µM,4.08 µM,17.8 µM,17.1 µM,12.6 µM,17 µM,4.33 µM,5.24 µM,–,1.97 µM,3.33 µM,1.94 µM,4.5 µM,3.34 µM,4.99 µM,2.07 µM,2.18 µM
Nc1ncn([C@H]2CC(O)[C@@H](CO)S2)c(=O)n1 (some centres not stated),> 100 µM,> 100 µM,> 100 µM,> 100 µM,5.34 µM,> 100 µM,> 100 µM,> 100 µM,> 100 µM,–,> 100 µM,1.99 µM,88.6 µM,1.08 µM,8.51 µM,8.93 µM,23.3 µM,2.27 µM,–,0.42 µM
